Assay type in all cases: in vivo
Data set [1] concerns maize of the cultivar "Pioneer". Description: Example A-3 post-emergence test/greenhouse, crop damage, Maize 2. The note with it: 7 days after the application, Table A-3-2. The method, then:
(§1) The active compound or safener components are in each case dissolved in a few ml (generally 2-3 ml) of solvent (generally acetone or N,N-dimethyl-formamide), and the solutions are combined and then—if appropriate after addition of an emulsifier—diluted with water to the desired concentration. In general, an aqueous spray liquor was prepared using 0.1% of the additive Renex-36.
(§2) The test plants are grown under controlled conditions (temperature, light, atmospheric humidity) in a greenhouse. The test plants are sprayed when they have reached a height of 5-15 cm. The concentration of the spray liquor is chosen such that the particular amounts of active compound desired are applied in 500 l of water/ha.
(§3) After spraying, the pots with the test plants are kept in a greenhouse chamber under controlled conditions (temperature, light, atmospheric humidity) until the test has ended. […]
(§4) The figures denote: • 0%=no damage (like untreated control) • 100%=total destruction/damage
(§5) The compound I-2 was used as 10 WP. In each case, Marlipal® was added in an amount of 500 ml/ha.
(§6) Evaluation was carried out as early as 7 days after the application. • Maize 1=maize of the cultivar “Prinz” • Maize 2=maize of the cultivar “Pioneer” • Maize 3=maize of the cultivar “LIXIS”

Data set [2] has as its system maize of the cultivar "LIXIS". Description: Example A-3 post-emergence test/greenhouse, crop damage, Maize 3. The note with it: 7 days after the application, Table A-3-3. The method, then: as §1, §2, §3, §4, §5, §6
The next data set concerns maize cv. "Pioneer". Description: Example A post-emergence test/greenhouse, crop damage, 0.1% Renex-36. The note with it: 10 g of a.i./ha; Table A1; about three weeks after application. The method, then: The active compound or safener components are in each case dissolved in a few ml (generally 2-3 ml) of solvent (generally acetone or N,N-dimethyl-formamide), and the solutions are combined and then—if appropriate after addition of an emulsifier—diluted with water to the desired concentration. […] The test plants are grown under controlled conditions (temperature, light, atmospheric humidity) in a greenhouse. […] The concentration of the spray liquor is chosen such that the particular amounts of active compound desired are applied in 500 l of water/ha. After spraying, the pots with the test plants are kept in a greenhouse chamber under controlled conditions (temperature, light, atmospheric humidity) until the test has ended. About three weeks after the application, the degree of damage to the crop plants is rated in % damage in comparison to the development of the untreated control. […] Active compounds, application rates, test plants and results are shown in the tables below, the terms being used in the tables being as defined below: • maize=maize cv. “Pioneer” • a.i.=active ingredient=active compound/safener

For data set [3], the system named is maize of the cultivar "Prinz". Description: Example A-3 post-emergence test/greenhouse, crop damage, Maize 1. The note with it: 7 days after the application, Table A-3-1. The method, then: as §1, §2, §3, §4, §5, §6
Data set [4] concerns winter barley. In words: Example A-5 post-emergence test/greenhouse, crop damage. On the procedure: as §1, §2
(§7) After spraying, the pots with the test plants are kept in a greenhouse chamber under controlled conditions (temperature, light, atmospheric humidity) until the test has ended. About three weeks after the application, the degree of damage to the crop plants is rated in % damage in comparison to the development of the untreated control.
as §4
(§8) Mefenpyr-diethyl was used as 100 EC and the compound of Ex. No. I-2 was used as 10 WP.

For data set [5], the system named is winter wheat. Described as above. On the procedure: as §1, §2, §7, §4, §8
Data set [6] deals with winter barley. Description: Example A-4 post-emergence test/greenhouse, crop damage. The settings on record: safener alone 50 g of a.i./ha; Table A-4-4. The method, then: as §1, §2, §7, §4
(§9) Mefenpyr-diethyl was used as 100 EC.
(§10) The compounds of Ex. Nos. I-2 and I-13 were used as 10 WP.

The subject of data set [7] is winter wheat. Described as above. The note with it: safener alone 50 g of a.i./ha; Table A-4-1. The method, then: as §1, §2, §7, §4, §9, §10
For data set [8], the system named is winter barley. In words: Example A-2 post-emergence test/greenhouse, crop damage, 0.5% Renex-36. On the procedure:
as §1, §2, §7, §4
Here, an aqueous spray liquor comprising 0.5% of the additive Renex-36 was prepared.

Consider `COC(=O)c1csc(C)c1S(=O)(=O)NC(=O)n1nc(OC)n(C)c1=O` [I-2], for which the figures for the “Damage maize 2 (in %)” value in [1] (8 g of a.i./ha) and in data set [1] (15 g of a.i./ha) were 10% and 20%, respectively. Further, the “Damage Maize 3 (in %)” value in [2] (8 g of a.i./ha) came to 20%; in data set [2] (15 g of a.i./ha), 40%. The “Damage maize (in %)” value in the data set with maize cv. "Pioneer" was found to be 35%. In addition, the “Damage Maize 1 (in %)” value in data set [3] (8 g of a.i./ha) amounted to 10%; in [3] (15 g of a.i./ha), 20%.
On to `CCOC(=O)C1=NN(c2ccc(Cl)cc2Cl)C(C)(C(=O)OCC)C1` (centres unmarked) [mefenpyr-diethyl, diethyl 1-(2,4-dichloro-phenyl)-4,5-dihydro-5-methyl-1H-pyrazole-3,5-dicarboxylate, reference compound], for which the “Damage winter barley (in %)” value in the data set with winter barley [4] (safener alone 50 g of a.i./ha, Table A-5-11) turned out to be 0%; in the data set with winter barley [6] it was 0%. Besides, the “Damage winter wheat (in %)” value with winter wheat [5] (safener alone 50 g of a.i./ha, Table A-5-1) was determined as 0%; with winter wheat [5] (safener alone 50 g of a.i./ha, Table A-5-2), 0%; with winter wheat [5] (safener alone 50 g of a.i./ha, Table A-5-3), 0%; in the data set with winter wheat [5] (safener alone 50 g of a.i./ha, Table A-5-4), 0%; in the data set on winter wheat [5] (safener alone 50 g of a.i./ha, Table A-5-5) it was 0%; in the data set with winter wheat [7] it was 0%.
With `COC(=O)c1csc(C)c1S(=O)(=O)[N-]C(=O)n1nc(OC)n(C)c1=O.[Na+]` [I-2, sodium salt], the “Damage winter barley (in %)” value in the data set on winter barley [8] (2 g of a.i./ha, Table A-2-1) was 50%; in the data set on winter barley [8] (4 g of a.i./ha, Table A-2-1), 60%.
In the case of `COCC(=O)Nc1ccc(S(=O)(=O)NC(=O)c2ccccc2OC)cc1` [Comp. No. IId-25], the “Damage winter barley (in %)” value in the data set with winter barley [8] (safener alone 30 g of a.i./ha, Table A-2-2) is recorded as 0%; in the data set on winter barley [8] (safener alone 100 g of a.i./ha, Table A-2-2), 0%.
For `CCOn1c(CC)nn(C(=O)NS(=O)(=O)c2c(C(=O)OC)csc2C)c1=O` [I-17], the “Damage winter barley (in %)” value in the data set on winter barley [4] (8 g of a.i./ha, Table A-5-13) was 70%; in the data set on winter barley [4] (15 g of a.i./ha, Table A-5-13) it was 70%; with winter barley [4] (30 g of a.i./ha, Table A-5-13), 80%. Moreover, the “Damage winter wheat (in %)” value with winter wheat [5] (8 g of a.i./ha, Table A-5-7) turned out to be 40%; with winter wheat [5] (15 g of a.i./ha, Table A-5-7), 50%; in the data set with winter wheat [5] (30 g of a.i./ha, Table A-5-7), 70%.
Take `CCOC(=O)c1csc(C)c1S(=O)(=O)NC(=O)n1nc(OC)n(C)c1=O` [I-13]: the “Damage winter wheat (in %)” value in the data set on winter wheat [5] (in vivo) is on record as 50%.

These data come from patent US20200085058A1, “SELECTIVE HERBICIDES BASED ON SUBSTITUTED THIEN-3-YL-SULPHONYLAMINO(THIO)CARBONYLTRIAZOLIN(THI)ONES AND SAFENERS” (Bayer CropScience Aktiengesellschaft, priority 2001, published 2020).
